In US6531143B1, “α-hydroxy fatty acid derivatives and external compositions containing the same” (Kanebo, Limited, priority 1998, dated 2003):
Like-named read-outs stand apart in the source and are kept apart here.

How the values were obtained:
[1] = system: skin (facies medialis brachii of 20 subjects); settings: in vivo
Method: (§1) As the safety test, irritation to the skin was examined by the following method. Each sample of the alpha-hydroxy fatty acid derivatives obtained in the Examples prepared by dissolving in olive oil in the concentration of 50 wt % and an adhesive plaster for patch test was impregnated with 1 ml of the sample. The adhesive plaster was put on the facies medialis brachii of 20 subjects for 24 hours. Irritation was evaluated 24 hours after removing the patch.

[2] = system: skin (facies medialis brachii of 20 subjects); experiment: Safety test: irritation to the skin, 24 h patch test; settings: 50 wt % in olive oil, 1 ml on adhesive plaster, 24 hours on facies medialis brachii, evaluated 24 hours after removing the patch, subjects with clear erythema
Method: as §1

Row | Compound | Positive percentage [1] [%] | Positive percentage [2] [%] | melting point [°C]
1 | 2-long-chain branched fatty acid (12-31) oxypalmitic acid palmityl ester | 0 |  | 
2 | CCCCCCCCCCCCCCCCOC(=O)C(CCCCCCCCCCCCCC)OC(C)=O (stereo not shown) [2-acetyloxypalmitic acid palmityl ester] |  | 0 | 35.1
3 | CCCCCCCCCCCCCCCCC(OC(C)=O)C(=O)OCCCCCCCCCCCCCCCCCC(C)C (stereo not shown) [2-acetyloxystearic acid-(18)-methylnonadecanyl ester] |  | 0 | 
4 | CCCCCCCCCCCCC(OC(=O)C(C)C)C(=O)OCCCCCCCCCCCCCCCCCC(C)CC (stereo not shown) [2-isobutyryloxymyristic acid-(18)-methylicosanyl ester] |  | 0 | 
5 | CCCCCCCCCCCCCCCCOC(=O)C(CCCCCCCCCCCCCC)OC(=O)C(C)C (stereo not shown) [2-isobutyryloxypalmitic acid palmityl ester] |  | 0 | 28.3
6 | CCCCCCCCCCCCOC(=O)C(CCCCCCCCCC)OC(=O)CC(C)C (stereo not shown) [2-isovaleryloxylauric acid lauryl ester] |  | 0 | 
7 | CCCCCCCCCCCCCCCCOC(=O)C(CCCCCCCCCCCCCC)OC(=O)CCCCCCCCCCCCCCC (stereo not shown) [2-palmitoyloxypalmitic acid palmityl ester] |  | 0 | 52.5
